Counter-ions that a name gives are not always drawn.
Columns and labels:
[1] = test system: aorta rings; assay: Vasorelaxant action in vitro (phenylephrine-contracted rabbit aorta rings); settings: Oryctolagus cuniculus, phenylephrine-induced contraction, organ bath 37° C., 0.1% DMSO, read-out: IC50 (concentration needed to reduce the magnitude of the control contraction by 50%)
Method: B-1. Vasorelaxant Action In Vitro
Rabbits are stunned by a blow to the neck and exsanguinated. The aorta is removed, freed from adhering tissue and divided into rings of a width of 1.5 mm. The rings are placed individually under an initial tension in 5 ml organ baths with Krebs-Henseleit solution which is at 37° C., is gassed with carbogen and has the following composition (in each case mM): sodium chloride 119; potassium chloride: 4.8; calcium chloride dihydrate: 1; magnesium sulfate heptahydrate: 1.4; potassium dihydrogenphosphate: 1.2; sodium bicarbonate: 25; glucose: 10. The contractile force is determined with Statham UC2 cells, amplified and digitalized using A/D transducers (DAS 1802 HC, Keithley Instruments Munich), and recorded in parallel on linear recorders. To obtain a contraction, phenylephrine is added to the bath cumulatively in increasing concentration. After several control cycles, the substance to be investigated is added in each further run in increasing dosage in each case, and the height of the contraction achieved is compared with the height of the contraction reached in the last preceding run. This is used to calculate the concentration needed to reduce the magnitude of the control value by 50% (IC50 value). The standard administration volume is 5 μl; the DMSO content in the bath solution corresponds to 0.1%.

[2] = biological target: T1, recombinant guanylate cyclase reporter cell line (Rattus norvegicus, UniProt P19686+P20595); assay: Effect on a recombinant guanylate cyclase reporter cell line; type: cell-based; settings: recombinant guanylate cyclase reporter cell line (Wunder et al. 2005)
T1 construct: expressed in transfected cells
T1 sequence (P19686 1-690): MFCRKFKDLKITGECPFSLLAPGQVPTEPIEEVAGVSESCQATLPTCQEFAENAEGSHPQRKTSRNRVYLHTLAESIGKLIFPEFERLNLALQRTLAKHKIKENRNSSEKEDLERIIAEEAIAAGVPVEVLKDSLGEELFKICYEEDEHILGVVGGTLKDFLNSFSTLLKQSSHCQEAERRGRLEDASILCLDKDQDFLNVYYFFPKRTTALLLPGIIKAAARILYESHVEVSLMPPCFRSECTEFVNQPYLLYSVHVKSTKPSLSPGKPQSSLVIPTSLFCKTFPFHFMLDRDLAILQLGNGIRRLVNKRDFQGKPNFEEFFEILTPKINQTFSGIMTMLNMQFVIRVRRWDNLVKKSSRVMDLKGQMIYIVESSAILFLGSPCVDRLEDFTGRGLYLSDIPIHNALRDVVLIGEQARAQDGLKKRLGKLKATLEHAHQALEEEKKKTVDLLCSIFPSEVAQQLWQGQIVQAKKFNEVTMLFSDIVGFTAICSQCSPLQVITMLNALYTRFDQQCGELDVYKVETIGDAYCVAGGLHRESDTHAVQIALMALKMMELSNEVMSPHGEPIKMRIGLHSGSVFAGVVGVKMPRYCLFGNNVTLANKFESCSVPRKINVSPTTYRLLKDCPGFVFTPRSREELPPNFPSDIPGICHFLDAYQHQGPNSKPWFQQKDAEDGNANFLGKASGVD
T1 sequence (P20595 1-619): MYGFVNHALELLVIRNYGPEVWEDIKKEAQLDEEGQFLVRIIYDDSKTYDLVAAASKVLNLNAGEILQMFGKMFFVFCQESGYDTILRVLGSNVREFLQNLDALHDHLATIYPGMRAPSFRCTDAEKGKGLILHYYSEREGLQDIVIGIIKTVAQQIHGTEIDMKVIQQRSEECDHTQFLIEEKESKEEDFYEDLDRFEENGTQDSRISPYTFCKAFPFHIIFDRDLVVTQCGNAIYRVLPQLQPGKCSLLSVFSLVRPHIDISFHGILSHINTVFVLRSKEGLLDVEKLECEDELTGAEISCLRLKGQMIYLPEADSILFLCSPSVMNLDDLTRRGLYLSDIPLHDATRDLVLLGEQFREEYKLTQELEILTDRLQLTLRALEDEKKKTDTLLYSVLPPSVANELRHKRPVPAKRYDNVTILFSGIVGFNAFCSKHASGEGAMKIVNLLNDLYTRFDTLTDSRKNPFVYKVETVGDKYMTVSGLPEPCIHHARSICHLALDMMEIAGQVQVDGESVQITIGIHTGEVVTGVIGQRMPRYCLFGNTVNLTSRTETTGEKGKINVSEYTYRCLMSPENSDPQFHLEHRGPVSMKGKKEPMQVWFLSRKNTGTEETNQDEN
Method: B-2. Effect on a Recombinant Guanylate Cyclase Reporter Cell Line
The cellular activity of the compounds according to the invention is determined using a recombinant guanylate cyclase reporter cell line, as described in F. Wunder et al., Anal. Biochem. 339, 104-112 (2005).

Row | Structure (SMILES) | IC50 [1] [nM] | MEC (minimum effective concentration) [2] [µM]
1 | Nc1nc(N)nc(-c2nc(Cc3ccccc3F)n3ncccc23)n1 [Example 1, 6-[7-(2-Fluorobenzyl)imidazo[1,5-b]pyridazin-5-yl]-1,3,5-triazine-2,4-diamine formate] | 130 | 0.03
2 | CCOC(=O)Nc1c(N)nc(-c2nc(Cc3ccccc3F)n3ncccc23)nc1N [Example 5, Ethyl {4,6-diamino-2-[7-(2-fluorobenzyl)imidazo[1,5-b]pyridazin-5-yl]pyrimidin-5-yl}carbamate formate] | 200 | 0.3
3 | CCN(C(=O)OC)c1c(N)nc(-c2nc(Cc3ccccc3F)n3ncccc23)nc1N [Example 8, Methyl {4,6-diamino-2-[7-(2-fluorobenzyl)imidazo[1,5-b]pyridazin-5-yl]pyrimidin-5-yl}ethylcarbamate formate] | 152 | 0.1
4 | COC(=O)N(Cc1cccc(F)c1)c1c(N)nc(-c2nc(Cc3ccccc3F)n3ncccc23)nc1N [Example 19, Methyl {4,6-diamino-2-[7-(2-fluorobenzyl)imidazo[1,5-b]pyridazin-5-yl]pyrimidin-5-yl}(3-fluorobenzyl)carbamate formate] | 81 | 0.1

More lines, in order of falling IC50 [1], values ahead:

Row | IC50 [1] [nM] | MEC (minimum effective concentration) [2] [µM] | Structure (SMILES)
5 | 422 | 0.3 | Nc1nc(-c2nc(Cc3ccccc3F)n3ncccc23)nc(N)c1NC(=O)OC1CCC1 [Example 11, Cyclobutyl {4,6-diamino-2-[7-(2-fluorobenzyl)imidazo[1,5-b]pyridazin-5-yl]pyrimidin-5-yl}carbamate formate]
6 | 171 | 0.01 | COC(=O)N(Cc1ccccc1)c1c(N)nc(-c2nc(Cc3ccccc3F)n3ncccc23)nc1N [Example 15, Methyl benzyl{4,6-diamino-2-[7-(2-fluorobenzyl)imidazo[1,5-b]pyridazin-5-yl]pyrimidin-5-yl}carbamate formate]

— US9150580B2, “Substituted imidazopyridines and the use thereof” (BAYER INTELLECTUAL PROPERTY GMBH, priority 2011, dated 2015)
